Measured values as given in article PMC10502144, “Anti-methicillin-resistant Staphylococcus aureus activity and safety evaluation of 14-O-[(5-ethoxycarbonyl-4,6-dimethylpyrimidine-2-yl) thioacetyl] mutilin (EDT)” (Scientific Reports, 2023).
In brackets after ≈: the same amount, converted by molar mass. Like-named read-outs stand apart in the source and are kept apart here.

Tests used:
[1] = tested on: GFP expression in S. aureus ATCC 29,213; assay: Green fluorescent protein (GFP) inhibition assay; format: cell-based, Staphylococcus aureus; conditions: 1 and 4 μM, co-incubation 4 h, fluorescence microscopy
Protocol: The inhibition assay against GFP expression was performed according to our previous report[41] with minor modification. Plasmids carried erythromycin resistant genes were labeled with GFP and electrotransformed into S. aureus. After screenings using erythromycin, S. aureus strain expressing GFP was then obtained and grown to mid-logarithmic phase, followed by collecting centrifugally and re-suspending with PBS buffer. The obtained suspensions were co-incubated with EDT and tiamulin with the final concentrations of 1 and 4 μM, respectively, for 4 h at 37 °C. The cells were subsequently collected by centrifugation to perform imaging using fluorescence microscopy after re-suspending with PBS buffer.

[2] = tested on: clinical isolates of MRSA; assay: MIC by broth serial-dilution against 48 clinical isolates of MRSA; format: cell-based, methicillin-resistant Staphylococcus aureus; conditions: Staphylococcus aureus, MRSA
Protocol: The tests against 48 clinical isolates of MRSA from dairy farms in 4 different provinces in China[37] were conducted in triplicate, using broth serial-dilution method in 96-well plates according to CLSI reference methods. Briefly, EDT and tiamulin fumarate used as referent drug were dissolved in 25% dimethyl sulfoxide (DMSO) to a solution with concentration of 64 μg/mL. The obtained 100 μL solutions were then added into the first column of the 96-well plate, and diluted to the tenth well with serial twofold dilutions. The last two wells were used as positive controls. The 100 μL bacterial suspension was diluted in MHB to give a final organism density of to 10^5 ~ 10^6 colony-forming unit (CFU) per 1 mL and added to all the wells, followed by incubating at 37 °C for 24 h. […] The results were expressed as an average of the MICs obtained from three independent experiments.

C=CC1(C)CC(OC(=O)CSc2nc(C)c(C(=O)OCC)c(C)n2)C2(C)C(C)CCC3(CCC(=O)C32)C(C)C1O (centres unmarked) [EDT, 14-O-[(5-ethoxycarbonyl-4,6-dimethylpyrimidine-2-yl)thioacetyl] mutilin]
inhibition of GFP expression (green fluorescence intensity) [1]: effectively inhibited the expression of GFP
MIC ([2]; read-out: MIC values against 48 strains, range over 48 clinical isolates of MRSA): 0.0313 to 0.0625 µg/mL (≈ 0.0546 to 0.109 µM)
inhibition at 0.0625 µg/mL ([2]; read-out: strains inhibited): 97.9%
MIC ([2]; strain CX1): 0.0313 µg/mL (≈ 0.0546 µM)
MIC ([2]; strain CX2): 0.0313 µg/mL (≈ 0.0546 µM)
MIC ([2]; strain CX5): 0.0313 µg/mL (≈ 0.0546 µM)
MIC ([2]; strain CX6): 0.0313 µg/mL (≈ 0.0546 µM)
MIC ([2]; strain CX7): 0.0625 µg/mL (≈ 0.109 µM)
MIC ([2]; strain CX9): 0.125 µg/mL (≈ 0.218 µM)
MIC ([2]; strain HG1): 0.0313 µg/mL (≈ 0.0546 µM)
MIC ([2]; strain HG2): 0.0313 µg/mL (≈ 0.0546 µM)
MIC ([2]; strain HG3): 0.0313 µg/mL (≈ 0.0546 µM)
MIC ([2]; strain HG4): 0.0313 µg/mL (≈ 0.0546 µM)
MIC ([2]; strain HG5): 0.0313 µg/mL (≈ 0.0546 µM)
MIC ([2]; strain HG6): 0.0313 µg/mL (≈ 0.0546 µM)
MIC ([2]; strain HG7): 0.0625 µg/mL (≈ 0.109 µM)
MIC ([2]; strain QY4): 0.0313 µg/mL (≈ 0.0546 µM)
MIC ([2]; strain QY5): 0.0313 µg/mL (≈ 0.0546 µM)
MIC ([2]; strain QY6): 0.0625 µg/mL (≈ 0.109 µM)
MIC ([2]; strain QY8): 0.0313 µg/mL (≈ 0.0546 µM)
MIC ([2]; strain QY10): 0.0625 µg/mL (≈ 0.109 µM)
MIC ([2]; strain SH3): 0.0313 µg/mL (≈ 0.0546 µM)
MIC ([2]; strain SH4): 0.0313 µg/mL (≈ 0.0546 µM)
MIC ([2]; strain SH6): 0.0313 µg/mL (≈ 0.0546 µM)
MIC ([2]; strain SH7): 0.0625 µg/mL (≈ 0.109 µM)
MIC ([2]; strain SH8): 0.0313 µg/mL (≈ 0.0546 µM)
MIC ([2]; strain SH9): 0.0313 µg/mL (≈ 0.0546 µM)
MIC ([2]; strain SH10): 0.0313 µg/mL (≈ 0.0546 µM)
MIC ([2]; strain SH11): 0.0313 µg/mL (≈ 0.0546 µM)
MIC ([2]; strain SH12): 0.0313 µg/mL (≈ 0.0546 µM)
MIC ([2]; strain SH13): 0.0313 µg/mL (≈ 0.0546 µM)
MIC ([2]; strain SH14): 0.0313 µg/mL (≈ 0.0546 µM)
MIC ([2]; strain SH15): 0.0313 µg/mL (≈ 0.0546 µM)
MIC ([2]; strain SX5): 0.0313 µg/mL (≈ 0.0546 µM)
MIC ([2]; strain SX6): 0.0313 µg/mL (≈ 0.0546 µM)
MIC ([2]; strain SX7): 0.0313 µg/mL (≈ 0.0546 µM)
MIC ([2]; strain SX8): 0.0313 µg/mL (≈ 0.0546 µM)
MIC ([2]; strain SX9): 0.0313 µg/mL (≈ 0.0546 µM)
MIC ([2]; strain SX10): 0.0313 µg/mL (≈ 0.0546 µM)
MIC ([2]; strain SX16): 0.0625 µg/mL (≈ 0.109 µM)
MIC ([2]; strain SX17): 0.0313 µg/mL (≈ 0.0546 µM)
MIC ([2]; strain SX18): 0.0313 µg/mL (≈ 0.0546 µM)
MIC ([2]; strain ZY1): 0.0313 µg/mL (≈ 0.0546 µM)
MIC ([2]; strain ZY2): 0.0313 µg/mL (≈ 0.0546 µM)
MIC ([2]; strain ZY3): 0.0313 µg/mL (≈ 0.0546 µM)
MIC ([2]; strain ZY4): 0.0313 µg/mL (≈ 0.0546 µM)
MIC ([2]; strain ZY5): 0.0313 µg/mL (≈ 0.0546 µM)
MIC ([2]; strain ZY6): 0.0313 µg/mL (≈ 0.0546 µM)
MIC ([2]; strain ZY7): 0.0313 µg/mL (≈ 0.0546 µM)
MIC ([2]; strain ZY8): 0.0625 µg/mL (≈ 0.109 µM)
